Laboratory results reported in PubChem BioAssay AID1963853 (Molecular Pharmacology Branch, DTP, NCI, 2024).
Where “and” joins values, the source holds several entries; their conditions need not be identical. Identical values can stand only once.

Tested on: 266295-075-R-J1-PDC spheroid viability
Experiment: Anticancer human tumor 266295-075-R-J1-PDC patient-derived head and neck squamous carcinoma cell line growth inhibition [POLQ]
Conditions: spheroids with HUVEC and MSC; for viability, T/C: stronger effect = lower value
Procedure, shortened: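 Complex spheroid viability model combining PDC tumour cells with endothelial (HUVEC) and MSC stromal cells. Novobiocin, ART-558 or RP6685 were tested singly and in combination with standard and investigational anticancer drugs. Each was titrated in half-log steps from near clinical Cmax, or from 10 microM where Cmax was unknown.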

[1] = curve of first compound, second compound 0.0316 µM
[2] = curve of first compound, second compound 0.1 µM
[3] = curve of first compound, second compound 0.316 µM
[4] = curve of first compound, second compound 1 µM
[5] = curve of first compound, second compound 3.16 µM
[6] = curve of first compound, second compound 10 µM
[7] = second compound 0.0316 µM, first compound 0.0316 µM
[8] = second compound 0.0316 µM, first compound 0.1 µM
[9] = second compound 0.0316 µM, first compound 0.316 µM
[10] = second compound 0.0316 µM, first compound 1 µM
[11] = second compound 0.0316 µM, first compound 3.16 µM
[12] = second compound 0.0316 µM, first compound 10 µM
[13] = second compound 0.1 µM, first compound 0.0316 µM
[14] = second compound 0.1 µM, first compound 0.1 µM
[15] = second compound 0.1 µM, first compound 0.316 µM
[16] = second compound 0.1 µM, first compound 1 µM
[17] = second compound 0.1 µM, first compound 3.16 µM
[18] = second compound 0.1 µM, first compound 10 µM
[19] = second compound 0.316 µM, first compound 0.0316 µM
[20] = second compound 0.316 µM, first compound 0.1 µM
[21] = second compound 0.316 µM, first compound 0.316 µM
[22] = second compound 0.316 µM, first compound 1 µM
[23] = second compound 0.316 µM, first compound 3.16 µM
[24] = second compound 0.316 µM, first compound 10 µM
[25] = second compound 1 µM, first compound 0.0316 µM
[26] = second compound 1 µM, first compound 0.1 µM
[27] = second compound 1 µM, first compound 0.316 µM
[28] = second compound 1 µM, first compound 1 µM
[29] = second compound 1 µM, first compound 3.16 µM
[30] = second compound 1 µM, first compound 10 µM
[31] = second compound 3.16 µM, first compound 0.0316 µM
[32] = second compound 3.16 µM, first compound 0.1 µM
[33] = second compound 3.16 µM, first compound 0.316 µM
[34] = second compound 3.16 µM, first compound 1 µM
[35] = second compound 3.16 µM, first compound 3.16 µM
[36] = second compound 3.16 µM, first compound 10 µM
[37] = second compound 10 µM, first compound 0.0316 µM
[38] = second compound 10 µM, first compound 0.1 µM
[39] = second compound 10 µM, first compound 0.316 µM
[40] = second compound 10 µM, first compound 1 µM
[41] = second compound 10 µM, first compound 3.16 µM
[42] = second compound 10 µM, first compound 10 µM
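Also: spheroids exposed to compounds for seven days before readout.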

CC(C)n1c(=O)n(C)c2cnc3cc(F)c(-c4ccc(OCCCN5CCCCC5)nc4)cc3c21 + COC1C(OC(N)=O)C(O)C(Oc2ccc3c(O)c(NC(=O)c4ccc(O)c(CC=C(C)C)c4)c(=O)oc3c2C)OC1(C)C
IC50 [1]: > 10 µM | IC50 [2]: > 10 µM | IC50 [3]: > 10 µM | IC50 [4]: > 10 µM | IC50 [5]: > 10 µM | IC50 [6]: > 10 µM | viability, T/C [7]: 102% | viability, T/C [8]: 86.7% | viability, T/C [9]: 97.2% | viability, T/C [10]: 93.8% | viability, T/C [11]: 83% | viability, T/C [12]: 72.2% | viability, T/C [13]: 105% | viability, T/C [14]: 95.5% | viability, T/C [15]: 90.3% | viability, T/C [16]: 96.5% | viability, T/C [17]: 82.8% | viability, T/C [18]: 74.5% | viability, T/C [19]: 103% | viability, T/C [20]: 114% | viability, T/C [21]: 90.7% | viability, T/C [22]: 100% | viability, T/C [23]: 93.9% | viability, T/C [24]: 57.2% | viability, T/C [25]: 121% | viability, T/C [26]: 99.5% | viability, T/C [27]: 91.8% | viability, T/C [28]: 86.3% | viability, T/C [29]: 74.8% | viability, T/C [30]: 77.7% | viability, T/C [31]: 92.8% | viability, T/C [32]: 85.2% | viability, T/C [33]: 101% | viability, T/C [34]: 78.9% | viability, T/C [35]: 74.9% | viability, T/C [36]: 66.2% | viability, T/C [37]: 124% | viability, T/C [38]: 88.4% | viability, T/C [39]: 78.3% | viability, T/C [40]: 78.5% | viability, T/C [41]: 83.3% | viability, T/C [42]: 66.3%

CC(=O)O[C@H]1C(=O)[C@@]2(C)[C@H]([C@H](OC(=O)c3ccccc3)[C@]3(O)C[C@H](OC(=O)[C@H](O)[C@@H](NC(=O)c4ccccc4)c4ccccc4)C(C)=C1C3(C)C)[C@]1(OC(C)=O)CO[C@@H]1C[C@@H]2O
viability, T/C (compound 0.00949 µM): 76.7% and 71.7% and 79% | viability, T/C (compound 0.03 µM): 72.1% and 64.8% and 76% | viability, T/C (compound 0.0949 µM): 54.3% and 61.7% and 67.4% | viability, T/C (compound 0.3 µM): 80.9% and 69.8% and 75% | viability, T/C (compound 0.949 µM): 73% and 75.7% and 70.2% | viability, T/C (compound 3 µM): 61.1% and 82% and 77.6% | IC50 (curve of compound): > 3 µM

CNCc1ccc(-c2[nH]c3cc(F)cc4c3c2CCNC4=O)cc1
viability, T/C (compound 0.0316 µM): 105% and 77.3% and 89.9% | viability, T/C (compound 0.1 µM): 102% and 92.1% and 96.7% | viability, T/C (compound 0.316 µM): 107% and 102% and 87.6% | viability, T/C (compound 1 µM): 91.4% and 94% and 99.2% | viability, T/C (compound 3.16 µM): 110% and 105% and 106% | viability, T/C (compound 10 µM): 91.8% and 123% and 105% | IC50 (curve of compound): > 10 µM

CNCc1ccc(-c2[nH]c3cc(F)cc4c3c2CCNC4=O)cc1 + Nc1ccc(C#CCN(C(=O)Cc2ncc(C(F)(F)F)cc2C(F)(F)F)c2ccc(F)cc2)nn1
IC50 [1]: > 10 µM | IC50 [2]: > 10 µM | IC50 [3]: > 10 µM | IC50 [4]: > 10 µM | IC50 [5]: > 10 µM | IC50 [6]: > 10 µM | viability, T/C [7]: 98.8% | viability, T/C [8]: 89.6% | viability, T/C [9]: 93.5% | viability, T/C [10]: 103% | viability, T/C [11]: 101% | viability, T/C [12]: 113% | viability, T/C [13]: 116% | viability, T/C [14]: 97% | viability, T/C [15]: 95.6% | viability, T/C [16]: 83.2% | viability, T/C [17]: 102% | viability, T/C [18]: 111% | viability, T/C [19]: 102% | viability, T/C [20]: 107% | viability, T/C [21]: 101% | viability, T/C [22]: 87.2% | viability, T/C [23]: 98.4% | viability, T/C [24]: 70.2% | viability, T/C [25]: 93.3% | viability, T/C [26]: 86.9% | viability, T/C [27]: 123% | viability, T/C [28]: 87.2% | viability, T/C [29]: 111% | viability, T/C [30]: 119% | viability, T/C [31]: 88.1% | viability, T/C [32]: 97.9% | viability, T/C [33]: 81.9% | viability, T/C [34]: 97.8% | viability, T/C [35]: 100% | viability, T/C [36]: 105% | viability, T/C [37]: 92.8% | viability, T/C [38]: 94.8% | viability, T/C [39]: 99.5% | viability, T/C [40]: 91% | viability, T/C [41]: 87% | viability, T/C [42]: 131%
